Assay results reported in ChEMBL document CHEMBL5661943, “ASAP - In vitro antiviral effect” (2024).
Values joined by “and” are separate entries in the source; they are usually repeats but may differ in a detail not shown here. Equal values may be shown once.

Assays:
Zika virus = test: Functional CPE-based assay to measure dose dependent changes in antiviral-drug inhibitory efficacy against Zika virus MR766 in Vero E6 miRFP670 cells (cotreated with P-gp inhibitor, CP100356). Cells are treated with antiviral candidates that are serially diluted. EC50 is reported via analysis of MTS assay as a readout of CPE. The assay has been performed by KU Leuven.; type: organism-based, Chlorocebus sabaeus, Vero C1008
dengue virus type 2 = test: Functional assay to measure dose dependent changes in antiviral-drug inhibitory efficacy against Dengue virus type 2 New Guinea C in Vero E6 miRFP670 cells (cotreated with P-gp inhibitor, CP100356). Cells are treated with antiviral candidates that are serially diluted, following infection, cells are fixed. EC50 is reported via analysis of fluorescence intensity using high-content imager. The …; type: organism-based, Chlorocebus sabaeus, Vero C1008; conditions: for EC90: P-gp concentration 500 nM, P-gp inhibitor CP100356

CC(C)NC(=O)[C@H](Nc1ccc2c(c1)CNC2)c1cc(Cl)cc2[nH]c(-c3ccccc3)nc12
EC90 (Zika virus; Baseline response 0 %, EC90 CI (lower) 1.625 uM, EC90 CI (upper) 3.959 uM, Hill slope 3.776, Maximum measured 116.485 %, Maximum response 100 %, Minimum measured 3.087 %, P-gp concentration 500 nM, R squared 0.948, P-gp inhibitor CP100356): 2.54 µM | EC90 (Zika virus; Zika virus, Vero C1008, Maximum measured -0.317 %, Minimum measured -11.958 %, P-gp concentration 500 nM, P-gp inhibitor CP100356): > 50 µM | EC90 (Zika virus; Zika virus, Vero C1008, Baseline response 0 %, Hill slope 1.53, Maximum measured 31.705 %, Maximum response 100 %, Minimum measured 3.074 %, P-gp concentration 500 nM, R squared 0.825, P-gp inhibitor CP100356): > 3.12 µM | EC90 (dengue virus type 2; Baseline response 0 %, Hill slope -0.821, Maximum measured 139.415 %, Maximum response 100 %, Minimum measured 43.862 %, R squared 0.144): > 50 µM | EC90 (dengue virus type 2; Baseline response 0 %, Hill slope -1.532, Maximum measured 181.616 %, Maximum response 100 %, Minimum measured 48.773 %, R squared 0.025): > 50 µM | EC90 (dengue virus type 2; Baseline response 0 %, Hill slope -1.75, Maximum measured 104.337 %, Maximum response 100 %, Minimum measured 20.383 %, R squared 0.733): > 12.5 µM | EC50 (dengue virus type 2; vero c1008): 5.05 µM and > 50 µM

O=C(Nc1ccc2c(c1)CNC2)c1cc(F)cc2[nH]c(-c3cnc(C4CC4)o3)nc12
EC90 (Zika virus; Baseline response 0 %, Hill slope 1.364, Maximum measured 18.791 %, Maximum response 100 %, Minimum measured -1.808 %, P-gp concentration 500 nM, R squared 0.107, P-gp inhibitor CP100356): > 50 µM | EC50 (Zika virus; Zika virus, Vero C1008): > 50 µM | EC90 (Zika virus; Zika virus, Vero C1008, Baseline response 0 %, Hill slope 2.704, Maximum measured 11.553 %, Maximum response 100 %, Minimum measured -5.923 %, P-gp concentration 500 nM, R squared 0.137, P-gp inhibitor CP100356): > 50 µM | EC90 (dengue virus type 2; Baseline response 0 %, EC90 CI (lower) 0.872 uM, EC90 CI (upper) 3.596 uM, Hill slope -8.389, Maximum measured 102.302 %, Maximum response 100 %, Minimum measured 7.049 %, R squared 0.894): 2.99 µM | EC50 (dengue virus type 2; Dengue virus, Vero C1008): 2.33 µM | EC90 (dengue virus type 2; Dengue virus, Vero C1008, Baseline response 0 %, EC90 CI (lower) 0.484 uM, EC90 CI (upper) 7.419 uM, Hill slope -10.584, Maximum measured 98.644 %, Maximum response 100 %, Minimum measured 4.286 %, R squared 0.843): 2.87 µM | EC50 (dengue virus type 2; vero c1008): 2.3 µM

O=C(Nc1ccc2c(c1)CNC2)c1cc(Br)cc2[nH]c(=O)[nH]c12
EC50 (Zika virus; Zika virus, Vero C1008): > 50 µM | EC90 (Zika virus; Zika virus, Vero C1008, Baseline response 0 %, Hill slope 1.27, Maximum measured 26.011 %, Maximum response 100 %, Minimum measured -2.243 %, P-gp concentration 500 nM, R squared 0.854, P-gp inhibitor CP100356): > 50 µM | EC50 (dengue virus type 2; Dengue virus, Vero C1008): > 50 µM | EC90 (dengue virus type 2; Dengue virus, Vero C1008, Maximum measured 135.314 %, Minimum measured 105.633 %): > 50 µM

CNC(=O)[C@H](Nc1ccc2c(c1)CNC2)c1cc(Cl)cc2[nH]c(-c3ccccc3)nc12
EC90 (Zika virus; Baseline response 0 %, EC90 CI (lower) 1.657 uM, EC90 CI (upper) 9.069 uM, Hill slope 2.736, Maximum measured 134.068 %, Maximum response 100 %, Minimum measured 11.054 %, P-gp concentration 500 nM, R squared 0.856, P-gp inhibitor CP100356): 3.88 µM | EC50 (Zika virus; Zika virus, Vero C1008): 1.54 µM | EC90 (Zika virus; Zika virus, Vero C1008, Baseline response 0 %, EC90 CI (lower) 2.457 uM, EC90 CI (upper) 4.2 uM, Hill slope 2.999, Maximum measured 107.773 %, Maximum response 100 %, Minimum measured 2.918 %, P-gp concentration 500 nM, R squared 0.982, P-gp inhibitor CP100356): 3.21 µM | EC50 (Zika virus; vero c1008): 1.74 µM | EC50 (dengue virus type 2; Dengue virus, Vero C1008): > 25 µM | EC90 (dengue virus type 2; Dengue virus, Vero C1008, Maximum measured 190.221 %, Minimum measured 63.084 %): > 25 µM | EC90 (dengue virus type 2; Dengue virus, Vero C1008, Baseline response 0 %, Hill slope -0.424, Maximum measured 89.369 %, Maximum response 100 %, Minimum measured 51.028 %, R squared 0.334): > 25 µM

N#Cc1ccc(-c2nc3c(C(=O)Nc4ccc5c(c4)CNC5)cc(F)cc3[nH]2)cc1
EC90 (Zika virus; Baseline response 0 %, Hill slope 0.2, Maximum measured 29.739 %, Maximum response 100 %, Minimum measured 4.071 %, P-gp concentration 500 nM, R squared 0.256, P-gp inhibitor CP100356): > 50 µM | EC50 (Zika virus; Zika virus, Vero C1008): > 50 µM | EC90 (Zika virus; Zika virus, Vero C1008, Baseline response 0 %, Hill slope 0.539, Maximum measured 18.428 %, Maximum response 100 %, Minimum measured 0.213 %, P-gp concentration 500 nM, R squared 0.888, P-gp inhibitor CP100356): > 50 µM | EC90 (dengue virus type 2; Dengue virus, Vero C1008, Maximum measured 143.39 %, Minimum measured 94.915 %): > 50 µM | EC90 (dengue virus type 2; Dengue virus, Vero C1008, Maximum measured 155.678 %, Minimum measured 70.057 %): > 6.25 µM | EC50 (dengue virus type 2; vero c1008): > 50 µM

C=CC[C@H]1NCc2cc(NC(=O)c3cc(Cl)cc4[nH]ncc34)ccc21
EC50 (Zika virus; Zika virus, Vero C1008): > 50 µM | EC90 (Zika virus; Zika virus, Vero C1008, Baseline response 0 %, Hill slope 0.168, Maximum measured 60.303 %, Maximum response 100 %, Minimum measured -6.598 %, P-gp concentration 500 nM, R squared 0.022, P-gp inhibitor CP100356): > 50 µM

Cc1nc2c(C(=O)Nc3ccc4c(c3)CNC4)cc(Cl)cc2[nH]1
EC50 (Zika virus; Zika virus, Vero C1008): > 50 µM | EC90 (Zika virus; Zika virus, Vero C1008, Maximum measured 8.786 %, Minimum measured -9.149 %, P-gp concentration 500 nM, P-gp inhibitor CP100356): > 50 µM | EC50 (dengue virus type 2; Dengue virus, Vero C1008): > 6.25 µM | EC90 (dengue virus type 2; Dengue virus, Vero C1008, Baseline response 0 %, Hill slope -1.031, Maximum measured 89.345 %, Maximum response 100 %, Minimum measured 48.357 %, R squared 0.44): > 6.25 µM

CC1(C)NCc2cc(NC(=O)c3cc(F)cc4[nH]ncc34)ccc21
EC50 (Zika virus; Zika virus, Vero C1008): > 50 µM | EC90 (Zika virus; Zika virus, Vero C1008, Maximum measured -0.426 %, Minimum measured -7.479 %, P-gp concentration 500 nM, P-gp inhibitor CP100356): > 50 µM

NCc1cccc(-c2csc3cc(C(=O)Nc4ccc5c(c4)CNC5)ccc23)c1
EC50 (Zika virus; Zika virus, Vero C1008): 2.4 µM | EC90 (Zika virus; Zika virus, Vero C1008, Baseline response 0 %, Hill slope 1.279, Maximum measured 60.824 %, Maximum response 100 %, Minimum measured 10.172 %, P-gp concentration 500 nM, R squared 0.942, P-gp inhibitor CP100356): > 3.12 µM

O=C(NC1CCOCC1)[C@H](Nc1ccc2c(c1)CNC2)c1cc(Cl)cc2[nH]ncc12
EC50 (Zika virus; Zika virus, Vero C1008): 16.8 µM | EC90 (Zika virus; Zika virus, Vero C1008, Baseline response 0 %, Hill slope 1.579, Maximum measured 82.863 %, Maximum response 100 %, Minimum measured -0.215 %, P-gp concentration 500 nM, R squared 0.968, P-gp inhibitor CP100356): > 50 µM | EC50 (dengue virus type 2; Dengue virus, Vero C1008): > 50 µM | EC90 (dengue virus type 2; Dengue virus, Vero C1008, Maximum measured 134.779 %, Minimum measured 105.958 %): > 50 µM

O=C(Nc1ccc2c(c1)CNC2)c1cc(Cl)cc2[nH]c(-c3cccc(F)c3)nc12
EC50 (Zika virus; Zika virus, Vero C1008): > 50 µM | EC90 (Zika virus; Zika virus, Vero C1008, Baseline response 0 %, Hill slope 0.814, Maximum measured 40.434 %, Maximum response 100 %, Minimum measured 0.118 %, P-gp concentration 500 nM, R squared 0.904, P-gp inhibitor CP100356): > 50 µM

O=C(Nc1ccc2c(c1)CNC2)c1cc(F)c2[nH]ccc2c1
EC50 (Zika virus; Zika virus, Vero C1008): 24.5 µM | EC90 (Zika virus; Zika virus, Vero C1008, Baseline response 0 %, Hill slope 0.879, Maximum measured 122.421 %, Maximum response 100 %, Minimum measured -4.109 %, P-gp concentration 500 nM, R squared 0.266, P-gp inhibitor CP100356): > 50 µM | EC50 (dengue virus type 2; Dengue virus, Vero C1008): < 0.391 µM | EC90 (dengue virus type 2; Dengue virus, Vero C1008, Baseline response 0 %, Hill slope 3.427, Maximum measured 127.165 %, Maximum response 100 %, Minimum measured 69.586 %, R squared 0.325): < 0.391 µM

O=C(Nc1ccc2c(c1)CN[C@H]2C1CC1)c1cc(F)cc2[nH]ncc12
EC50 (Zika virus; Zika virus, Vero C1008): 6.28 µM | EC90 (Zika virus; Zika virus, Vero C1008): 7.09 µM

O=C(Nc1ccc2c(c1)CNC2)c1cc(F)cc2nn(-c3ccccn3)nc12
EC90 (Zika virus; Baseline response 0 %, Hill slope 0.342, Maximum measured 8.101 %, Maximum response 100 %, Minimum measured -1.287 %, P-gp concentration 500 nM, R squared 0.284, P-gp inhibitor CP100356): > 50 µM | EC90 (Zika virus; Baseline response 0 %, Hill slope -0.391, Maximum measured 8.995 %, Maximum response 100 %, Minimum measured 1.943 %, P-gp concentration 500 nM, R squared 0.39, P-gp inhibitor CP100356): > 3.12 µM | EC50 (Zika virus; vero c1008): > 50 µM | EC90 (dengue virus type 2; Baseline response 0 %, EC90 CI (lower) 0.77 uM, EC90 CI (upper) 2.483 uM, Hill slope -4.828, Maximum measured 102.327 %, Maximum response 100 %, Minimum measured 2.546 %, R squared 0.795): 3.44 µM | EC90 (dengue virus type 2; Dengue virus, Vero C1008, Baseline response 0 %, EC90 CI (lower) 0.427 uM, EC90 CI (upper) 5.546 uM, Hill slope -1.321, Maximum measured 90.171 %, Maximum response 100 %, Minimum measured 71.834 %, R squared 0.697): > 6.25 µM | EC50 (dengue virus type 2; vero c1008): > 6.25 µM and 2.18 µM

C[C@H]1NCc2cc(NC(=O)c3cc(F)cc4[nH]ncc34)ccc21
EC50 (Zika virus; Zika virus, Vero C1008): > 50 µM | EC90 (Zika virus; Zika virus, Vero C1008, Baseline response 0 %, Hill slope 1.233, Maximum measured 13.741 %, Maximum response 100 %, Minimum measured -1.755 %, P-gp concentration 500 nM, R squared 0.661, P-gp inhibitor CP100356): > 50 µM

O=C(Nc1ccc2c(c1)CNC2)c1cc(Cl)cc2[nH]c(-c3ccccc3)nc12
EC50 (Zika virus; Zika virus, Vero C1008): > 50 µM | EC90 (Zika virus; Zika virus, Vero C1008, Baseline response 0 %, Hill slope 1.72, Maximum measured 10.819 %, Maximum response 100 %, Minimum measured -5.769 %, P-gp concentration 500 nM, R squared 0.199, P-gp inhibitor CP100356): > 50 µM

O=C(Nc1ccc2c(c1)CNC2)c1cc(Cl)cc(N2CCCC2)c1
EC50 (Zika virus; Zika virus, Vero C1008): > 50 µM | EC90 (Zika virus; Zika virus, Vero C1008, Maximum measured 3.676 %, Minimum measured -16.143 %, P-gp concentration 500 nM, P-gp inhibitor CP100356): > 50 µM
